Assay results as given in patent US20240293359A1, “PROPHYLACTIC OR THERAPEUTIC DRUG FOR PARKINSON'S DISEASE” (Kyowa Pharma Chemical Co., Ltd., priority 2021, published 2024).
Values after ≈ are worked out from the molar mass of the structure shown.

Key:
[1] = tested on: dopamine oxidation accelerated in the presence of Fe^3+; test: Suppression test of dopamine oxidation accelerated in presence of iron ions; format: biochemical; settings: dopamine 2 mmol/L, Fe^3+ 2 mmol/L, hydrogen peroxide 1 moL/L, 0.2 M phosphate buffer pH 6.5, 25° C., 6 to 9 hours
Method: For a test, dopamine hydrochloride (DA·HCl), iron(III) nitrate 9-hydrate (Fe(NO3)3·9H2O) as Fe^3+ source, hydrogen peroxide solution as oxidant, glutathione trisulfide 2-hydrate, lipoic acid trisulfide, pantethine trisulfide, or N,N′-diacetyl-L-cysteine trisulfide as trisulfide compound were used.
A method of preparing each substance is as follows. • 10 mM DA-HCl aqueous solution: prepared by dissolving DA·HCl in purified water. • 20 mM Fe^3+ solution: prepared by dissolving Fe(NO3)3·9H2O in 5 mmol/L H2SO4. • 40 mM glutathione trisulfide solution: prepared by dissolving glutathione trisulfide 2-hydrate in 0.2 mol/L phosphate buffer solution (pH=6.5). • 40 mM lipoic acid trisulfide solution: prepared by dissolving lipoic acid trisulfide in 0.2 mol/L phosphate buffer solution (pH=6.5). • 400 mM pantethine trisulfide solution: prepared by dissolving pantethine trisulfide in 0.2 mol/L phosphate buffer solution (pH==6.5). • 40 mM N,N′-diacetyl-L-cysteine trisulfide: prepared by dissolving N,N′-diacetyl-L-cysteine trisulfide in 0.2 mol/L phosphate buffer solution (pH=6.5).
The pre-prepared preparation solution of each substance (mentioned above) and 0.2 M phosphate buffer solution (pH=6.5) were mixed in a 50 mL or 5 mL test tube to prepare 20 mL or 2 mL reaction solution so that each substance has the following concentration in the reaction solution. • Dopamine: 2 mmol/L • Fe^3+: 2 mmol/L • Hydrogen peroxide: 1 moL/L • Glutathione trisulfide: 3 concentrations (5, 10 or 20 mmol/L) • Lipoic acid trisulfide: 2 concentrations (10 or 20 mmol/L) • Pantethine trisulfide: 3 concentrations (100, 150 or 200 mmol/L) • N,N′-diacetyl-L-cysteine trisulfide: 3 concentrations (5, 10 or 20 mmol/L)
The reaction solution was stirred at 25° C., 500 rpm for 6 to 9 hours. The dopamine concentration in the reaction solution was quantified with high performance liquid chromatography (HPLC).
The conditions for HPLC is as follows. • Detector: Ultraviolet absorptiometer (measuring wavelength: 280 nm) • Column: Inertsil ODS-2 (4.6 mm I.D.×150 mm, 5 μm) • Column temperature: constant temperature around 35° C. • Mobile phase: prepared by adding 0.2 mol/L citric acid aqueous solution to 0.2 mol/L disodium hydrogenphosphate aqueous solution to adjust to pH 3.0. • Flow rate: 0.7 mL/min • Amount infused: 20 μL • Area measurement range: for 30 minutes after infusion of sample solution Preparation of sample solution: prepared by diluting 100 μL reaction solution 10-fold with water to form sample solution • Retention time: Dopamine (DA) approximately 7 minutes

[2] = Solubility in water at 20° C.; format: physicochemical; settings: free lipoic acid trisulfide

In the case of `O=C(O)CCCCC1CCSSS1` (racemic) [lipoic acid trisulfide], the “suppression of dopamine oxidation in the presence of Fe^3+ (dopamine concentration by HPLC, FIG. 2)” value ([1]; lipoic acid trisulfide 10 or 20 mmol/L) was “suppressed the dopamine oxidation”.

With `N[C@@H](CCC(=O)N[C@@H](CSSSC[C@H](NC(=O)CC[C@H](N)C(=O)O)C(=O)NCC(=O)O)C(=O)NCC(=O)O)C(=O)O` [Glutathione trisulfide, glutathione trisulfide] the “suppression of dopamine oxidation in the presence of Fe^3+ (dopamine concentration by HPLC, FIG. 1)” value ([1]; glutathione trisulfide 5, 10 or 20 mmol/L) was “suppressed the dopamine oxidation”.

Work on `O=C(O)CCCC[C@@H]1CCSSS1` [Lipoic acid trisulfide R body, (R)-lipoic acid trisulfide] yielded a solubility [2] of 300 µg/mL (≈ 1260 µM).

In the case of `CC(=O)N[C@@H](CSSSC[C@H](NC(C)=O)C(=O)O)C(=O)O` [N,N′-diacetyl-L-cysteine trisulfide], the “suppression of dopamine oxidation in the presence of Fe^3+ (dopamine concentration by HPLC, FIG. 4)” value ([1]; N,N′-diacetyl-L-cysteine trisulfide 5, 10 or 20 mmol/L) was “suppressed the dopamine oxidation”.

For `CC(C)(CO)[C@@H](O)C(=O)NCCC(=O)NCCSSSCCNC(=O)CCNC(=O)[C@H](O)C(C)(C)CO` [pantethine trisulfide], the “suppression of dopamine oxidation in the presence of Fe^3+ (dopamine concentration by HPLC, FIG. 3)” value ([1]; pantethine trisulfide 100, 150 or 200 mmol/L) was “suppressed the dopamine oxidation”.
